Drawing on paper PMC6669564, “Cytotoxic Sesquiterpenoid Quinones and Quinols, and an 11-Membered Heterocycle, Kauamide, from the Hawaiian Marine Sponge Dactylospongia elegans” (Marine Drugs, 2019), this text covers IC50 for two compounds.

pIC50: −log10 of the molar value.

In general, pIC50 refers to −log10 of the IC50, conventionally taken in molar units.

For the assay, the target named is β-secretase 1 (BACE1) (Homo sapiens, UniProt P56817). In words: HitHunter BACE1 enzyme fragment complementation chemiluminescence assay, […] h incubation, dose response. The class given is biochemical.
β-secretase 1 (BACE1), sequence (P56817 46-457): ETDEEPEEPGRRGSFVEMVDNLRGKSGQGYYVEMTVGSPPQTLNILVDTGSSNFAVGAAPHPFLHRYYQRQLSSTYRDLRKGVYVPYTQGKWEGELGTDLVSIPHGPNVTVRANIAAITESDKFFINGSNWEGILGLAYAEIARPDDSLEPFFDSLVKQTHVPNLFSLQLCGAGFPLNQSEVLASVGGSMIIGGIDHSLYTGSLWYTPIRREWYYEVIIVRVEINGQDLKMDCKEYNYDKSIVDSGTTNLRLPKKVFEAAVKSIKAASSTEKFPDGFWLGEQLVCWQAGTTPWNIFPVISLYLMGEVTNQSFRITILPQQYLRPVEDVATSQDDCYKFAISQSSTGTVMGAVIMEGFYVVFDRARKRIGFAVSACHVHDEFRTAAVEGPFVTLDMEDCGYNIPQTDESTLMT

`C=C1CCC[C@H]2[C@](C)(CC3=C(O)C(=O)C=C(N)C3=O)[C@@H](C)CC[C@]12C` [compound 3, smenospongine]: the pIC50 was 4.11. As to `C=C1CCC[C@H]2[C@](C)(CC3=C(O)C(=O)C=C(OC)C3=O)[C@@H](C)CC[C@]12C` [compound 1, ilimaquinone], the negative-log IC50 (pIC50) was 4.19.
